Results published in patent US20230372355A1 (AXSOME THERAPEUTICS, INC., priority 2022, published 2023).

Columns and labels:
[1] = test system: patients with moderate and severe migraine and a history of inadequate response to prior acute treatments; assay: Phase 3 randomized, double-blind, placebo- and active-controlled trial, acute treatment of moderate and severe migraine (Example 1), efficacy; format: in vivo, human
[2] = test system: patients with moderate and severe migraine; settings: human, in vivo

Dizziness, % of subjects [2]: 2.1%
Dizziness, number of subjects [2]: 9
Nausea, % of subjects [2]: 4.8%
Nausea, number of subjects [2]: 21
Somnolence, % of subjects [2]: 2.1%
Somnolence, number of subjects [2]: 9
Structure (SMILES): CN(C)CCc1c[nH]c2ccc(Cn3cncn3)cc12 [rizatriptan, Rizatriptan]
percentage of patients experiencing sustained pain relief from 2 hours to 24 hours after dosing ([1]; 2-24 hours): 43.9%
proportion of patients with sustained pain freedom from 2 hours to 48 hours ([1]; 2-48 hours): 8.8%
proportion of patients experiencing pain relief […] after dosing ([1]; […] after dosing): 52.5%
Any Treatment-Emergent Adverse Event, % of subjects [2]: 15.4%
Any Treatment-Emergent Adverse Event, number of subjects [2]: 67
